For 1 compound, Relative tumor volume results are on record in patent publication US8334364B2, “High-molecular weight derivative of nucleic acid antimetabolite” (priority 2006, dated 2012).

Experiment [1] relates to mouse colon cancer, Colon26. Kind of experiment: Antitumor effect against tumor-bearing mouse (1). The experiment is classed as in vivo. The following applies: once intravenously, 7th day after initiation of administration, average ± SD, volume on day of initiation = 1.0. An excerpt: Tumor of mouse colon cancer, Colon26, maintained by serial subcutaneous subculture in mice, was minced into about 2-mm square blocks, and the blocks were transplanted subcutaneously on the dorsal part of a mouse using a trocar. On the 7th day after tumor transplantation, the compound of Example 1 (indicated as Compound 1 in Table 2) and the compound of Example 2 (indicated as Compound 2 in Table 2), respectively dissolved in physiological saline, and gemcitabine hydrochloride as a control drug dissolved in a 5% glucose injection solution were respectively administered once intravenously at the doses indicated in Table 2. The tumor volumes on the day of initiation of administration and on the 7th day after the initiation of administration were calculated by the following equation, and the relative tumor volumes on the day of initiation of administration and on the 7th day after the initiation of administration were determined.

Experiment [2] concerns mouse colon cancer, Colon26. Kind of experiment: Antitumor effect against tumor-bearing mouse (2). The experiment is classed as in vivo. As to conditions: once intravenously, 8th day after initiation of administration, average ± SD, volume on day of initiation = 1.0. An excerpt:
Tumor of mouse colon cancer, Colon26, maintained by serial subcutaneous subculture in mice, was minced into about 2-mm square blocks, and the blocks were transplanted subcutaneously on the dorsal part of a mouse. On the 7th day after tumor transplantation, the compound of Example 3 (indicated as Compound 3 in Table 3) and the compound of Example 4 (indicated as Compound 4 in Table 3), respectively dissolved in physiological saline, and gemcitabine hydrochloride as a control drug dissolved in a 5% glucose injection solution were respectively administered once intravenously at the doses indicated in Table 3. The tumor volumes on the day of initiation of administration and on the 8th day after the initiation of administration were calculated in the same manner as in Test Example 3, and the relative tumor volumes on the day of initiation of administration and on the 8th day after the initiation of administration were determined.

[3] abbreviates: dose 200 mg/kg in terms of gemcitabine hydrochloride.

Where a name gives a salt, the structure may show the parent alone.

For the compound `Nc1ccn([C@@H]2O[C@H](CO)[C@@H](O)C2(F)F)c(=O)n1` [Control drug, gemcitabine hydrochloride], the Relative tumor volume in experiment [1] (dose 100 mg/kg in terms of gemcitabine hydrochloride) was determined as 3.9 ± 0.5; in experiment [1] (setting [3]), 3.4 ± 0.6; in experiment [2] (dose 40 mg/kg in terms of gemcitabine hydrochloride) it was 5.3 ± 1.1; in experiment [2] (setting [3]), 4.8 ± 1.7.
